Data reported in paper PMC3961306, “Comparison of the Cancer Gene Targeting and Biochemical Selectivities of All Targeted Kinase Inhibitors Approved for Clinical Use” (PLoS ONE, 2014).
Where two headings read alike, the source gives them in different places.

Columns and labels:
[1] = system: forty-four human cancer cell lines; assay: Cell proliferation assay (ATPlite, 72 hours) in the 44 cell line Oncolines panel; assay type: cell-based; details: for IC50: Homo sapiens
[2] = target: panel of more than 300 wild-type and mutant kinases (313 kinase panel) (Homo sapiens, UniProt P51451); assay: Kinase profiling in a biochemical assay panel (mobility shift assays and ELISA), %-inhibition at 1 μM; selectivity entropy; details: kinase BLK; 1 μM compound
Chain of panel of more than 300 wild-type and mutant kinases (313 kinase panel) (Homo sapiens, UniProt P51451) (P51451 whole entry, change not shown): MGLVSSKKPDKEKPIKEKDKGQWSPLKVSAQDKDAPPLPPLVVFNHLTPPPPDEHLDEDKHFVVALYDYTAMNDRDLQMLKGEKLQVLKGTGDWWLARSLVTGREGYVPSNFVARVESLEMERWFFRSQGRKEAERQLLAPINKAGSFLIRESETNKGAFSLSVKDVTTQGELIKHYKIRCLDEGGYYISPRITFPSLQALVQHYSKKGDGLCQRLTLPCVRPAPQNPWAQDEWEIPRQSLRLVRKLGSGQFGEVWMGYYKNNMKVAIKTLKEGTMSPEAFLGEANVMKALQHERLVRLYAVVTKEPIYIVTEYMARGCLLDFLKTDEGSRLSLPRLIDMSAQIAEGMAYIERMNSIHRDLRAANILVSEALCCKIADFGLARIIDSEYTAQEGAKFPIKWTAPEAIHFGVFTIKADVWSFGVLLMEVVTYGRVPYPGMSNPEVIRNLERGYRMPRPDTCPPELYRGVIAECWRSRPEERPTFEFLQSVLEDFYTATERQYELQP

[3] = target: panel of more than 300 wild-type and mutant kinases (313 kinase panel) (Homo sapiens, UniProt P51617); assay: as above; details: kinase IRAK1; compound at 1 μM
[4] = target: T1, panel of more than 300 wild-type and mutant kinases (313 kinase panel) (Homo sapiens, UniProt P00540); assay: as above; details: kinase MOS; 1 μM
T1 sequence (P00540 1-346): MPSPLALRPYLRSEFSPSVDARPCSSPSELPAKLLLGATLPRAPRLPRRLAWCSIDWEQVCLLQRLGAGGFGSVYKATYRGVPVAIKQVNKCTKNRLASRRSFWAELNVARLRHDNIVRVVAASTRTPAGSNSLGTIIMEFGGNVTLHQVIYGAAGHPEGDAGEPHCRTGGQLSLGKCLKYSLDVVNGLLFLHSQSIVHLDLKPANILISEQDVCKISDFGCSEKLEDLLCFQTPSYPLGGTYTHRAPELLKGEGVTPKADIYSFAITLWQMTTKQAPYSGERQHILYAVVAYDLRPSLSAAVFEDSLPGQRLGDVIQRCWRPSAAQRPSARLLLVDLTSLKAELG

[5] = 4-4 cell, read-out: cell panel IC50, J82
[6] = 4-4 cell, read-out: cell panel IC50, PA-1
[7] = 4-4 cell, read-out: cell panel IC50, SJCRH30
[8] = 4-4 cell, read-out: cell panel IC50, SR
[9] = 769-P, read-out: cell panel IC50, 769-P
[10] = 786-0, read-out: cell panel IC50, 786-0
[11] = A 172, read-out: cell panel IC50, A-172
[12] = A204, read-out: cell panel IC50, A-204
[13] = A498, read-out: cell panel IC50, A-498
[14] = A549, read-out: cell panel IC50, A-549
[15] = A-375, read-out: cell panel IC50, A375
[16] = A-427, read-out: cell panel IC50, A-427
[17] = ACHN, read-out: cell panel IC50, ACHN
[18] = AN3-CA, read-out: cell panel IC50, AN3 CA
[19] = AU565, read-out: cell panel IC50, AU-565
[20] = BT-20, read-out: cell panel IC50, BT-20
[21] = BT-549, read-out: cell panel IC50, BT-549
[22] = BXPC-3, read-out: cell panel IC50, BxPC-3
[23] = C-33-A, read-out: cell panel IC50, C-33 A
[24] = CAL-27, read-out: cell panel IC50, CAL 27
[25] = CCRF-CEM, read-out: cell panel IC50, CCRF-CEM
[26] = DLD-1, read-out: cell panel IC50, DLD-1
[27] = FaDu, read-out: cell panel IC50, FaDu
[28] = HCT-15, read-out: cell panel IC50, HCT-15
[29] = HCT-116, read-out: cell panel IC50, HCT-116
[30] = Hs-578T, read-out: cell panel IC50, Hs 578T
[31] = Jurkat E6.1, read-out: cell panel IC50, Jurkat E6.1
[32] = K562, read-out: cell panel IC50, K-562
[33] = LS174T, read-out: cell panel IC50, LS 174T
[34] = LoVo, read-out: cell panel IC50, LoVo
[35] = MG-63, read-out: cell panel IC50, MG-63
[36] = MOLT-4, read-out: cell panel IC50, MOLT-4
[37] = MeWo, read-out: cell panel IC50, MeWo
[38] = NCI-H82, read-out: cell panel IC50, NCI-H82
[39] = NCI-H460, read-out: cell panel IC50, NCI-H460
[40] = OVCAR-3, read-out: cell panel IC50, OVCAR-3
[41] = RPMI-7951, read-out: cell panel IC50, RPMI-7951
[42] = SHP77, read-out: cell panel IC50, SHP-77
[43] = SK-N-AS, read-out: cell panel IC50, SK-N-AS
[44] = SW48, read-out: cell panel IC50, SW48
[45] = SW480, read-out: cell panel IC50, SW480
[46] = SW-620, read-out: cell panel IC50, SW620
[47] = U2OS, read-out: cell panel IC50, U-2 OS
[48] = U-87 MG, 72 h, read-out: IC50 in cell proliferation assay (table S5 cellpanel data)

Compound: Cc1nc(Nc2ncc(C(=O)Nc3c(C)cccc3Cl)s2)cc(N2CCN(CCO)CC2)n1 [dasatinib]
- Difference between the average IC50 in the cell panel and the most potent IC50 ([1]; 44 cell line panel, Figure 2D): more than 1000 fold
- IC50 [1, 5]: 2.5 µM
- IC50 [1, 6]: 0.055 µM
- IC50 [1, 7]: 1.29 µM
- IC50 [1, 8]: 3 µM
- IC50 [1, 9]: 0.055 µM
- IC50 [1, 10]: 0.359 µM
- IC50 [1, 11]: 0.099 µM
- IC50 [1, 12]: 0.021 µM
- IC50 [1, 13]: 0.681 µM
- IC50 [1, 14]: 10.2 µM
- IC50 [1, 15]: 0.518 µM
- IC50 [1, 16]: 2.18 µM
- IC50 [1, 17]: 0.048 µM
- IC50 [1, 18]: 3.55 µM
- IC50 [1, 19]: 7.07 µM
- IC50 [1, 20]: 9.8 µM
- IC50 [1, 21]: 0.143 µM
- IC50 [1, 22]: 0.204 µM
- IC50 [1, 23]: 0.009 µM
- IC50 [1, 24]: 0.153 µM
- IC50 [1, 25]: 7.19 µM
- IC50 [1, 26]: 3.4 µM
- IC50 [1, 27]: 0.446 µM
- IC50 [1, 28]: 1.68 µM
- IC50 [1, 29]: 14.2 µM
- IC50 [1, 30]: 0.079 µM
- IC50 [1, 31]: 2.39 µM
- IC50 [1, 32]: 0.00047 µM
- IC50 [1, 33]: 3.5 µM
- IC50 [1, 34]: 1.58 µM
- IC50 [1, 35]: > 10 µM
- IC50 [1, 36]: 0.862 µM
- IC50 [1, 37]: 17 µM
- IC50 [1, 38]: 10.3 µM
- IC50 [1, 39]: 19 µM
- IC50 [1, 40]: 0.12 µM
- IC50 [1, 41]: 0.034 µM
- IC50 [1, 42]: > 31.6 µM
- IC50 [1, 43]: 0.636 µM
- IC50 [1, 44]: > 31.6 µM
- IC50 [1, 45]: 2.1 µM
- IC50 [1, 46]: 12.4 µM
- IC50 [1, 47]: 3.23 µM
- IC50 [1, 48]: 14.9 µM
- %-inhibition, BLK [2]: 103%
- %-inhibition of IRAK1 [3]: 2.75%

Compound: CCN(CC)CCNC(=O)c1c(C)[nH]c(/C=C2\C(=O)Nc3ccc(F)cc32)c1C [sunitinib]
- IC50 [1, 5]: 3.5 µM
- IC50 [1, 6]: 1.31 µM
- IC50 [1, 7]: 3.14 µM
- IC50 [1, 8]: 0.527 µM
- IC50 [1, 9]: 2.66 µM
- IC50 [1, 10]: 2.62 µM
- IC50 [1, 11]: 3.28 µM
- IC50 [1, 12]: 4.08 µM
- IC50 [1, 13]: 1.97 µM
- IC50 [1, 14]: 2.26 µM
- IC50 [1, 15]: 1.55 µM
- IC50 [1, 16]: 1.06 µM
- IC50 [1, 17]: 1.32 µM
- IC50 [1, 18]: 1.51 µM
- IC50 [1, 19]: 3.96 µM
- IC50 [1, 20]: 13.2 µM
- IC50 [1, 21]: 4.84 µM
- IC50 [1, 22]: 2.29 µM
- IC50 [1, 23]: 1.98 µM
- IC50 [1, 24]: 3.08 µM
- IC50 [1, 25]: 3.21 µM
- IC50 [1, 26]: 3.13 µM
- IC50 [1, 27]: 2 µM
- IC50 [1, 28]: 2.11 µM
- IC50 [1, 29]: 2.68 µM
- IC50 [1, 30]: 3.48 µM
- IC50 [1, 31]: 1.06 µM
- IC50 [1, 32]: 2.09 µM
- IC50 [1, 33]: 3.52 µM
- IC50 [1, 34]: 0.962 µM
- IC50 [1, 35]: 3.37 µM
- IC50 [1, 36]: 0.828 µM
- IC50 [1, 37]: 3.42 µM
- IC50 [1, 38]: 2.28 µM
- IC50 [1, 39]: 3.43 µM
- IC50 [1, 40]: 8.63 µM
- IC50 [1, 41]: 3.67 µM
- IC50 [1, 42]: 5.7 µM
- IC50 [1, 43]: 1.86 µM
- IC50 [1, 44]: 3.7 µM
- IC50 [1, 45]: 5.65 µM
- IC50 [1, 46]: 2.54 µM
- IC50 [1, 48]: 5.75 µM
- %-inhibition, BLK [2]: 96%
- %-inhibition of IRAK1 [3]: 90%

Compound: CN(C)C/C=C/C(=O)Nc1cc2c(Nc3ccc(F)c(Cl)c3)ncnc2cc1O[C@H]1CCOC1 [afatinib]
- IC50 [1, 5]: 3.34 µM
- IC50 [1, 6]: 1.9 µM
- IC50 [1, 7]: 2.44 µM
- IC50 [1, 8]: 0.988 µM
- IC50 [1, 9]: 2.23 µM
- IC50 [1, 10]: 2.72 µM
- IC50 [1, 11]: 2.95 µM
- IC50 [1, 12]: 2.21 µM
- IC50 [1, 13]: 2.73 µM
- IC50 [1, 14]: 3.16 µM
- IC50 [1, 15]: 1.28 µM
- IC50 [1, 16]: 2.9 µM
- IC50 [1, 17]: 0.297 µM
- IC50 [1, 18]: 2.78 µM
- IC50 [1, 19]: 0.013 µM
- IC50 [1, 20]: 4.35 µM
- IC50 [1, 21]: 3.27 µM
- IC50 [1, 22]: 3.69 µM
- IC50 [1, 23]: 0.021 µM
- IC50 [1, 24]: 0.434 µM
- IC50 [1, 25]: 1.28 µM
- IC50 [1, 26]: 1.71 µM
- IC50 [1, 27]: 0.00342 µM
- IC50 [1, 28]: 1.55 µM
- IC50 [1, 29]: 0.935 µM
- IC50 [1, 30]: 3.38 µM
- IC50 [1, 31]: 0.87 µM
- IC50 [1, 32]: 3.27 µM
- IC50 [1, 33]: 1.31 µM
- IC50 [1, 34]: 2.07 µM
- IC50 [1, 35]: 2.83 µM
- IC50 [1, 36]: 0.922 µM
- IC50 [1, 37]: 3.77 µM
- IC50 [1, 38]: 2.23 µM
- IC50 [1, 39]: 2.64 µM
- IC50 [1, 40]: 2.1 µM
- IC50 [1, 41]: 3.58 µM
- IC50 [1, 42]: 3.66 µM
- IC50 [1, 43]: 2.23 µM
- IC50 [1, 44]: 4.17 µM
- IC50 [1, 45]: 3.64 µM
- IC50 [1, 46]: 3.35 µM
- IC50 [1, 47]: 2.57 µM
- IC50 [1, 48]: 5.02 µM
- %-inhibition of MOS [4]: -2%
